Measurements: patent publication US5578479A, “Alpha-amylase from hyperthermophilic archaebacterium” (The Johns Hopkins University, priority 1992, dated 1996)
Structures can show the parent of a compound that is named as a salt.

Legend:
[1] = molecular target: T1, Pyrococcus furiosus α-amylase, purified, wild type, SEQ ID NO:1 (Pyrococcus furiosus, UniProt P49067); assay: activity stained native-PAGE after heating samples with additive; format: biochemical; details: sample heated 15 minutes
T1 construct: made in house; host or cells: Pyrococcus furiosus DSM 3638, native cells (not recombinant); cytosolic fraction, three ion exchange steps and electroelution
T1 sequence (P49067 2-649): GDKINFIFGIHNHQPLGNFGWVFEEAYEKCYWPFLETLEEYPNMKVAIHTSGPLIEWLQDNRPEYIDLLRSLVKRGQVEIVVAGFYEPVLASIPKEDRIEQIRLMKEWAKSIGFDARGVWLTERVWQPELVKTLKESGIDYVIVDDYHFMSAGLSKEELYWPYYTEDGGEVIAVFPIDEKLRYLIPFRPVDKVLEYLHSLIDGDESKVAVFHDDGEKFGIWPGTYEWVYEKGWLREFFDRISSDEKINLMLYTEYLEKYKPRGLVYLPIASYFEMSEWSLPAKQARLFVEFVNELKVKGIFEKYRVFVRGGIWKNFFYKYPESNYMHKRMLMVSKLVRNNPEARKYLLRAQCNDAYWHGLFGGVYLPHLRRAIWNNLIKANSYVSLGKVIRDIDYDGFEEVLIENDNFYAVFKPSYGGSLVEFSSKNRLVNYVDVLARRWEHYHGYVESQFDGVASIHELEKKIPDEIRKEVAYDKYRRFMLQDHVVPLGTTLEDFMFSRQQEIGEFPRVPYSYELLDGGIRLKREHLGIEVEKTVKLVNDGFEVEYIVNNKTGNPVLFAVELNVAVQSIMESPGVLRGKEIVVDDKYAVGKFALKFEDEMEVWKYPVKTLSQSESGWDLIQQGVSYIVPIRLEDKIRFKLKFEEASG
Method: Samples were heated 15 min in the following: Lane 1, 100 mM sodium phosphate pH 7.0; Lane 2, 5 mM EDTA; Lane 3, % SDS; Lane 4, 12% β-mercaptoethanol. The samples were run on a native gel (8% acrylamide), containing 0.02% starch, and stained as described in the Examples.
Activity staining was accomplished by the incorporation of starch into the acrylamide matrix of the resolving gel. When preparing the gels, as described above, 0.05% soluble starch was used in place of distilled water when the gels were cast. To observe the thermophilic amylase activity following electrophoresis the spacers and the gel left between the glass plates were sealed with Saran Wrap to prevent dessication. The gel, between the plates, was then incubated for 30 minutes at 98° C., then stained with iodine solution (see above). […] Following this procedure it was still possible to stain the gel with Coomassie blue to visualize the proteins within the gel.
To determine the effect of denaturants and metal ions on the activity of P. furiosus α-amylase activity, stained native-PAGE or in vitro activity assays were utilized.

[2] = molecular target: T1, Pyrococcus furiosus α-amylase, purified, wild type, SEQ ID NO:1; assay: standard activity assay in the presence of denaturants; format: biochemical; details: reagent present at 1M, 98° C.
Method: The dextrinizing activity of the α-amylase was determined using a modification of the assay of Manning and Campbell (Manning et al, J. Biological Chem. 236(11):2952-2957 (1961)). To 20 μl of sample were added 20 μl of 1% soluble starch and 20 μl of 100 mM sodium phosphate, pH 7.0. Controls were prepared using an equal volume of the appropriate buffer in place of the enzyme solution. The samples were incubated at 92° C. for 10 minutes and the reaction terminated by cooling in ice water. Color was developed by the addition of 15 μl of an iodine solution (4% KI, 1.25% I). An additional 1 ml of distilled water was added to each sample to dilute the color of the sample to a measurable range. The absorbance was read at 600 nm with a Pharmacia LB Ultraspec III Spectrophotometer. One unit of α-amylase activity was defined as the amount of protein which hydrolyzed 1 mg of starch per minute.
The extent of activity loss induced by the denaturants, urea and guanidine HCl, was determined using a standard activity assay in which the above-mentioned reagents were present in 1M concentrations. At 98° C. the residual activity in the presence of these denaturants was 86.5% and 73% for urea and guanidine HCl, respectively.

Row | residual activity in the presence of denaturant [2] | Structure (SMILES) | other results
1 |  | O=C(O)CN(CCN(CC(=O)O)CC(=O)O)CC(=O)O [EDTA] | effect on activity (activity stained native-PAGE) ([1]; 5 mM EDTA): no significant effect on activity
2 | 73% | N=C(N)N [guanidine HCl] | 
3 | 86.5% | NC(N)=O [urea] | 
4 |  | OCCS [β-mercaptoethanol] | effect on activity (activity stained native-PAGE) ([1]; 2% β-mercaptoethanol): no significant effect on activity
